Experimental data taken from patent US20260139254A1, “INTERFERING RNA FOR INHIBITING TOP1 GENE EXPRESSION AND USE THEREOF” (JENKEM TECHNOLOGY CO., LTD. (BEIJING), priority 2022, published 2026).

System: A375 melanoma cells
Experiment: Inhibition of A375 cell proliferation by siTOP1 (CCK-8)
Type: cell-based, human
Conditions: A375, siRNA 50 nM, 72 h
Procedure: • 1) On the day before transfection, A375 melanoma cells were seeded into a 96-well plate at 2500-3000 cells/well, the culture medium being a total volume of 200 μL of DMEM culture medium containing 7.5% FBS and 1% Penicillin-Streptomycin, and the plate was placed in an incubator with 5% CO2 at 37° C. for 24 h to allow the cells to adhere to the wall. 5 replicate wells were made for each group. • 2) On the day of transfection, the culture medium was changed to 90 μL of reduced serum culture medium without antibiotics and containing 7.5% FBS. • 3) The siRNAs were diluted with an appropriate amount of Opti-MEM culture medium; Lipofectamine™ RNAiMAX (Lipo) transfection reagent was diluted with another appropriate amount of Opti-MEM culture medium and left to stand at room temperature for 5 min; and the two dilutions were uniformly mixed and left to stand at room temperature for 5 min. • 4) 10 μL of the mixed solution described above was added to each well to obtain a final transfection volume of 100 μL, and the working concentration of the siRNA was 50 nM. • 5) The cells were cultured in the incubator with 5% CO2 at 37° C. for 72 h.
After 72 h of transfection, 10 μL of CCK-8 solution was added to each well, and the cells were cultured in the incubator with 5% CO2 at 37° C. for another 4 h. The absorbance value at 450 nm was measured using a microplate reader. Cell viability was calculated according to the following formula: […]

Substance: siTOP1-1604: siRNA targeting TOP1; target SEQ ID NO: 9, sense strand SEQ ID NO: 24, antisense strand SEQ ID NO: 39 (sense GUGUGGACAAGAUCCGGAAUU; antisense UUCCGGAUCUUGUCCACACUU; described as unmodified parent siRNA, further chemistry not given here)
- Cell viability (%), mean value: 41.65%
- Inhibition of A375 cell proliferation compared to Blank: about 58%
